Several values for one entry are separate records, joined by “and”; a condition that tells them apart may be missing. Equal entries are not always repeated. Inconclusive results and toxic doses are left out. Cut-off read from the data, not from the text of the source: active = T/C of 150% or more; inactive = T/C below 125%. Numbered stars: 1 amine (or outer) side, 2 acyl side, 3 side chain; on linkers, the order of the positions; unused ones are H or OH. Bridge positions count the residues as written; N and C are the ends. Square brackets hold non-standard residues; d marks the D form. Peptide text beside a SMILES is read from it. I, II: the chains in the order shown. Actinocin(9to1) = Cc1c2oc3c(C)ccc(C(=O)[*:1])c3nc-2c(C(=O)[*:2])c(N)c1=O; NMeV = CN[CH](C(=O)O)C(C)C; Sar = CNCC(=O)O
System: L1210 leukemia ip in BDF1 mice, survival T/C
Test: NCI In Vivo Anticancer Drug Screen. Data for tumor model L1210 Leukemia (intraperitoneal) in B6D2F1 (BDF1) mice
Details: endpoint: mean survival time, higher = longer survival
Method in brief: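 Mice bearing the transplanted tumor received compound or vehicle. Survival of the treated group was divided by that of the vehicle-treated control group to give the ratio.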

[1] = dose: 50.0 mg/kg/injection, schedule: Q01DX001 (ip), vehicle: saline
[2] = dose: 100.0 mg/kg/injection, schedule: Q01DX001 (ip), vehicle: saline
[3] = dose: 100.0 mg/kg/injection, schedule: Q01DX009 (ip), vehicle: Klucel (hydroxypropylcellulose) (HPC)
[4] = dose: 200.0 mg/kg/injection, schedule: Q01DX009 (ip), vehicle: Klucel (hydroxypropylcellulose) (HPC)
[5] = dose: 400.0 mg/kg/injection, schedule: Q01DX009 (ip), vehicle: Klucel (hydroxypropylcellulose) (HPC)
[6] = dose: 100.0 mg/kg/injection, schedule: Q04DX003 (ip), vehicle: saline with Tween-80
[7] = dose: 200.0 mg/kg/injection, schedule: Q04DX003 (ip), vehicle: saline with Tween-80
[8] = dose: 100.0 mg/kg/injection, schedule: Q01DX009 (ip), vehicle: saline
[9] = dose: 25.0 mg/kg/injection, schedule: Q01DX009 (ip), vehicle: Klucel (hydroxypropylcellulose) (HPC)
[10] = dose: 50.0 mg/kg/injection, schedule: Q01DX009 (ip), vehicle: Klucel (hydroxypropylcellulose) (HPC)
[11] = dose: 100.0 mg/kg/injection, schedule: Q04DX003 (ip), vehicle: Klucel (hydroxypropylcellulose) (HPC)
[12] = dose: 200.0 mg/kg/injection, schedule: Q04DX003 (ip), vehicle: Klucel (hydroxypropylcellulose) (HPC)
[13] = dose: 400.0 mg/kg/injection, schedule: Q04DX003 (ip), vehicle: Klucel (hydroxypropylcellulose) (HPC)
[14] = dose: 200.0 mg/kg/injection, schedule: Q01DX001 (ip), vehicle: saline
[15] = dose: 400.0 mg/kg/injection, schedule: Q01DX001 (ip), vehicle: saline
[16] = dose: 100.0 mg/kg/injection, schedule: Q01DX001 (ip), vehicle: Klucel (hydroxypropylcellulose) (HPC)
[17] = dose: 200.0 mg/kg/injection, schedule: Q01DX001 (ip), vehicle: Klucel (hydroxypropylcellulose) (HPC)
[18] = dose: 100.0 mg/kg/injection, schedule: Q01DX001 (ip), vehicle: other

Measured: T/C

O=c1[nH]c2c(cnn2-c2ccccc2)c(=O)n1O
inactive: [1] 97 % of control | [2] 100 % of control

Cc1c2oc3c(C)ccc(C(=O)NC4C(=O)NC(C(C)C)C(=O)N5CCCC5C(=O)N(C)CC(=O)N(C)C(C(C)C)C(=O)OC4C)c3nc-2c(C(=O)NC2C(=O)NC(C(C)C)C(=O)N3CCCC3C(=O)N(C)CC(=O)N(C)C(C(C)C)C(=O)OC2C)c(N)c1=O (stereo not given) (I: TVP[Sar][NMeV] / II: TVP[Sar][NMeV]; ester I:1-I:C, II:1-II:C; linker I:N-II:N via Actinocin(9to1); configuration not given here)
inactive: dose: 0.05 mg/kg/injection, schedule: Q01DX009 (ip), vehicle: water 117 % of control | dose: 0.1 mg/kg/injection, schedule: Q01DX009 (ip), vehicle: water 106 % of control | dose: 0.2 mg/kg/injection, schedule: Q01DX009 (ip), vehicle: water 120 % of control | dose: 0.3 mg/kg/injection, schedule: Q04DX003 (ip), vehicle: water 124 % of control | dose: 0.4 mg/kg/injection, schedule: Q01DX009 (ip), vehicle: water 93 % of control | dose: 1.2 mg/kg/injection, schedule: Q04DX003 (ip), vehicle: water 110 % of control | dose: 1.8 mg/kg/injection, schedule: Q04DX003 (ip), vehicle: water 91 % of control

Cc1ccc([N+](=O)[O-])cc1NC(=O)N(C(C)C)C1CCCCC1
inactive: [3] 106 % of control | [4] 95 % of control | [5] 106 % of control

CCCCCCCCSCC(=O)O
inactive: [6] 103 % of control | [7] 97 % of control

CC[N+](CC)(CC)CCNC(C)=O
inactive: [8] 111 % of control | dose: 200.0 mg/kg/injection, schedule: Q01DX009 (ip), vehicle: saline 100 % of control | dose: 400.0 mg/kg/injection, schedule: Q01DX009 (ip), vehicle: saline 105 % of control

CCc1ccccc1NC(=O)Nc1ccc(OC)cc1
inactive: [9] 90 % of control | [10] 95 % of control | [3] 93 % of control | [11] 94 % of control | [4] 86 % of control | [12] 91 % of control | [13] 96 % of control

COc1cc(O)c(OC)cc1O
inactive: [3] 100 % of control | [11] 105 % of control | [4] 103 % of control | [12] 103 % of control | [5] 97 % of control | [13] 102 % of control

CCOC(=O)C(O)(C#CC(C)C)C1CCCC1 (stereo not given)
inactive: [2] 107 % of control | [14] 105 % of control | [15] 102 % of control

Brc1cc(Br)c(N=Nc2c(Br)cc(Br)cc2Br)c(Br)c1
inactive: [1] 95 % of control | [2] 95 % of control | [14] 95 % of control | [15] 101 % of control

Cc1c2c(nn1Cc1ccccc1)C(=O)C=C(Nc1ccccc1)C2=O
inactive: dose: 50.0 mg/kg/injection, schedule: Q01DX001 (ip), vehicle: Klucel (hydroxypropylcellulose) (HPC) 99 % of control | [16] 99 % of control and 104 % of control | [17] 97 % of control and 111 % of control

NC1(C(=O)c2ccccc2)CC2CCC1C2 (stereo not given)
inactive: [11] 101 % of control | [12] 98 % of control | [13] 103 % of control

CCOC(=O)Nc1cc2c(c(NC(=O)OCC)n1)N=C(C)CN2 (tested in a mixture with another compound)
inactive: dose: 100.0 mg/kg/injection, schedule: Q01DX001 (ip), vehicle: saline with Tween-80 95 % of control | dose: 200.0 mg/kg/injection, schedule: Q01DX001 (ip), vehicle: saline with Tween-80 95 % of control | dose: 200.0 mg/kg/injection, schedule: Q04DX002 (ip), vehicle: saline with Tween-80 95 % of control | dose: 400.0 mg/kg/injection, schedule: Q01DX001 (ip), vehicle: saline with Tween-80 95 % of control | dose: 400.0 mg/kg/injection, schedule: Q04DX002 (ip), vehicle: saline with Tween-80 103 % of control | dose: 600.0 mg/kg/injection, schedule: Q04DX002 (ip), vehicle: saline with Tween-80 103 % of control

COC1OCC(OC(C)=O)C(NC(C)=O)C1OC(C)=O (stereo not given)
inactive: [2] 100 % of control | [14] 101 % of control | [15] 111 % of control

O=C(O)CC(NC(=O)OCc1ccccc1)C(=O)OCc1ccccc1 (stereo not given)
inactive: dose: 100.0 mg/kg/injection, schedule: Q01DX009 (ip), vehicle: saline with Tween-80 107 % of control | [6] 104 % of control | dose: 200.0 mg/kg/injection, schedule: Q01DX009 (ip), vehicle: saline with Tween-80 93 % of control | [7] 107 % of control | dose: 400.0 mg/kg/injection, schedule: Q01DX009 (ip), vehicle: saline with Tween-80 91 % of control | dose: 400.0 mg/kg/injection, schedule: Q04DX003 (ip), vehicle: saline with Tween-80 96 % of control

O=c1[nH][nH]c(=O)c2c([N+](=O)[O-])cccc12
inactive: [18] 90 % of control | dose: 200.0 mg/kg/injection, schedule: Q01DX001 (ip), vehicle: other 92 % of control | dose: 400.0 mg/kg/injection, schedule: Q01DX001 (ip), vehicle: other 87 % of control

CCc1ccc(NC(=O)c2ccc(Cl)cc2Cl)cc1
inactive: dose: 100.0 mg/kg/injection, schedule: Q04DX002 (ip), vehicle: Klucel (hydroxypropylcellulose) (HPC) 97 % of control | dose: 200.0 mg/kg/injection, schedule: Q04DX002 (ip), vehicle: Klucel (hydroxypropylcellulose) (HPC) 87 % of control | dose: 400.0 mg/kg/injection, schedule: Q04DX002 (ip), vehicle: Klucel (hydroxypropylcellulose) (HPC) 91 % of control

CN1C(=O)CCS(=O)(=O)C1c1ccc(Cl)c(Cl)c1 (stereo not given)
inactive: dose: 12.5 mg/kg/injection, schedule: Q01DX009 (ip), vehicle: Klucel (hydroxypropylcellulose) (HPC) 101 % of control | [9] 114 % of control | dose: 25.0 mg/kg/injection, schedule: Q04DX003 (ip), vehicle: Klucel (hydroxypropylcellulose) (HPC) 105 % of control | [10] 103 % of control | dose: 50.0 mg/kg/injection, schedule: Q04DX003 (ip), vehicle: Klucel (hydroxypropylcellulose) (HPC) 100 % of control | [3] 110 % of control | [11] 105 % of control | [4] 104 % of control | [12] 108 % of control

OC(CCl)COCC#Cc1ccccc1 (stereo not given)
inactive: dose: 100.0 mg/kg/injection, schedule: Q01DX009 (ip), vehicle: saline sonified 93 % of control | dose: 100.0 mg/kg/injection, schedule: Q04DX003 (ip), vehicle: saline sonified 101 % of control | dose: 200.0 mg/kg/injection, schedule: Q01DX009 (ip), vehicle: saline sonified 96 % of control | dose: 200.0 mg/kg/injection, schedule: Q04DX003 (ip), vehicle: saline sonified 93 % of control | dose: 400.0 mg/kg/injection, schedule: Q01DX009 (ip), vehicle: saline sonified 93 % of control | dose: 400.0 mg/kg/injection, schedule: Q04DX003 (ip), vehicle: saline sonified 92 % of control

CCNS(=O)(=O)c1cccc(C(=S)OCC)c1
inactive: [16] 105 % of control | [17] 101 % of control | dose: 400.0 mg/kg/injection, schedule: Q01DX001 (ip), vehicle: Klucel (hydroxypropylcellulose) (HPC) 108 % of control

O=C(NCCc1ccccc1)C1CCN(CCc2ccccc2)CC1
inactive: [18] 107 % of control

O=C1CC2c3ccccc3C1C1C(=O)OC(=O)C21 (stereo not given)
inactive: [9] 94 % of control | [10] 105 % of control | [2] 102 % of control | [3] 112 % of control | [8] 96 % of control | [11] 107 % of control | dose: 100.0 mg/kg/injection, schedule: Q04DX003 (ip), vehicle: saline 100 % of control | [14] 98 % of control | [12] 100 % of control | dose: 200.0 mg/kg/injection, schedule: Q04DX003 (ip), vehicle: saline 91 % of control | [15] 93 % of control | [13] 109 % of control

CC(C)OC(=O)NCc1cccs1
inactive: dose: 100.0 mg/kg/injection, schedule: Q01DX009 (ip), vehicle: carboxymethylcellulose (CMC) 104 % of control | dose: 200.0 mg/kg/injection, schedule: Q01DX009 (ip), vehicle: carboxymethylcellulose (CMC) 101 % of control | dose: 400.0 mg/kg/injection, schedule: Q01DX009 (ip), vehicle: carboxymethylcellulose (CMC) 104 % of control

CCOC(=O)C1CN(C)C(=O)C1=O (stereo not given)
inactive: [1] 100 % of control | [2] 93 % of control | [14] 87 % of control | [15] 114 % of control

Cc1cc(OC(=O)Nc2ccc(F)c([N+](=O)[O-])c2)cc(C)c1Cl
inactive: [3] 101 % of control | [4] 93 % of control | [5] 95 % of control
